What follows are compounds tested against T1, HIF-PH2 (EGLN1) (Homo sapiens, UniProt Q9GZT9) (assay: HIF-PH assay (14CO2 capture, peptide-dependent turnover)). Settings: compound concentration 50 μM.
T1 construct: made in house; host or cells: insect Hi5 cells
Assay type: biochemical
Excerpt: Ketoglutaric acid α-[1-^14C]-sodium salt, alpha-ketoglutaric acid sodium salt, and HPLC purified peptide may be obtained from commercial sources, e.g., Perkin-Elmer (Wellesley Mass.), Sigma-Aldrich, and SynPep Corp. (Dublin Calif.), respectively. Peptides for use in the assay may be fragments of HIFα as described above or as disclosed in International Publication WO 2005/118836, incorporated by reference herein. For example, a HIF peptide for use in the HIF-PH assay is [methoxycoumarin]-DLDLEALAPYIPADDDFQL-amide (SEQ ID NO:2). HIF-PH, e.g., HIF-PH2 (EGLN1), can be expressed in, e.g., insect Hi5 cells, and partially purified, e.g., through a SP ion exchange chromatography column. Enzyme activity is determined by capturing ^14CO2 using an assay described by Kivirikko and Myllyla (1982, Methods Enzymol. 82:245-304). Assay reactions contain 50 mM HEPES (pH 7.4), 100 μM α-ketoglutaric acid sodium salt, 0.30 μCi/mL ketoglutaric acid α-[1-^14C]-sodium salt, 40 μM FeSO4, 1 mM ascorbate, 1541.8 units/mL Catalase, with or without 50 μM peptide substrate and various concentrations of compound of the invention. Reactions are initiated by addition of HIF-PH enzyme.
The peptide-dependent percent turnover is calculated by subtracting percent turnover in the absence of peptide from percent turnover in the presence of substrate peptide. Percent inhibition and IC50 are calculated using peptide-dependent percent turnover at given inhibitor concentrations. Calculation of IC50 values for each inhibitor is conducted using GraFit software (Erithacus Software Ltd., Surrey UK).
Representative compounds of the invention were analyzed using the HIF-PH assay described above. Table 1 presents enzyme inhibition data for exemplary compounds against HIF-PH2, a representative HIF prolyl hydroxylase. By inhibiting HIF prolyl hydroxylase, compounds of the invention stabilize HIFα, which then combines with HIFβ to form an active transcription factor that increases expression of various genes involved in numerous beneficial cellular processes.

T1 sequence (Q9GZT9 whole entry): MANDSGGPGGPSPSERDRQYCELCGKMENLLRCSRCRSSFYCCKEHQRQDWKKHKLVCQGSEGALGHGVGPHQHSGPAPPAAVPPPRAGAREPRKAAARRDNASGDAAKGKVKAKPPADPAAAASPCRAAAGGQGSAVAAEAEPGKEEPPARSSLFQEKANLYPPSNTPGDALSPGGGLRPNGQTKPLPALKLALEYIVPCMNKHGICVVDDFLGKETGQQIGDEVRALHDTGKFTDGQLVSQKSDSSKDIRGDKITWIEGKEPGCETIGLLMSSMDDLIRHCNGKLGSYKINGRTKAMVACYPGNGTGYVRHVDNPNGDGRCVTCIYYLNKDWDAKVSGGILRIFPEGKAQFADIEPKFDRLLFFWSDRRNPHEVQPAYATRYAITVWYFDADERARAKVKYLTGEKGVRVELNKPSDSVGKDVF

Structure (SMILES) | inhibition at 50 µM
O=C(O)CNC(=O)c1c(O)c2ccc(-c3ccc(F)c(Cl)c3)cc2sc1=O [Example 17, {[7-(3-Chloro-4-fluoro-phenyl)-4-hydroxy-2-oxo-2H-thiochromene-3-carbonyl]-amino}-acetic acid] | 92.8%
O=C(O)CNC(=O)c1c(O)c2cc(Cl)cc(-c3ccccc3)c2sc1=O [Example 44, [(6-Chloro-4-hydroxy-2-oxo-8-phenyl-2H-thiochromene-3-carbonyl)-amino]-acetic acid] | 100%
O=C(O)CNC(=O)c1c(O)c2ccc(C3CC3)cc2sc1=O [Example 53, [(7-Cyclopropyl-4-hydroxy-2-oxo-2H-thiochromene-3-carbonyl)-amino]-acetic acid] | 99%
Cc1ccc(-c2ccc3c(O)c(C(=O)NCC(=O)O)c(=O)sc3c2)cc1 [Example 19, [(4-Hydroxy-2-oxo-7-p-tolyl-2H-thiochromene-3-carbonyl)-amino]-acetic acid] | 92.1%
O=C(O)CNC(=O)c1c(O)c2ccc(-c3ccc(F)cc3)cc2sc1=O [Example 13, {[7-(4-Fluoro-phenyl)-4-hydroxy-2-oxo-2H-thiochromene-3-carbonyl]-amino}-acetic acid] | 99.7%
O=C(O)CNC(=O)c1c(O)c2cccc(-c3cc(C(F)(F)F)cc(C(F)(F)F)c3)c2sc1=O [Example 48, {[8-(3,5-Bis-trifluoromethyl-phenyl)-4-hydroxy-2-oxo-2H-thiochromene-3-carbonyl]-amino}-acetic acid] | 100%
Cc1cc(Cl)cc2c(O)c(C(=O)NCC(=O)O)c(=O)sc12 [Example 22, [(6-Chloro-4-hydroxy-8-methyl-2-oxo-2H-thiochromene-3-carbonyl)-amino]-acetic acid] | 95.6%
COc1ccc2c(O)c(C(=O)NCC(=O)O)c(=O)sc2c1 [Example 1, [(4-Hydroxy-7-methoxy-2-oxo-2H-thiochromene-3-carbonyl)-amino]-acetic acid] | 97.3%

Same assay, conditions: compound concentration 67 μM

Structure (SMILES) | inhibition at 67 µM
O=C(O)CNC(=O)c1c(O)c2ccc(-c3cc(C(F)(F)F)cc(C(F)(F)F)c3)cc2sc1=O [Example 29, {[7-(3,5-Bis-trifluoromethyl-phenyl)-4-hydroxy-2-oxo-2H-thiochromene-3-carbonyl]-amino}-acetic acid] | 96.4%

Same assay, conditions: compound concentration 200 μM

Structure (SMILES) | inhibition at 200 µM
O=C(O)CNC(=O)c1c(O)c2ccccc2sc1=O [Example 3, [(4-Hydroxy-2-oxo-2H-thiochromene-3-carbonyl)-amino]-acetic acid] | 99.2%

— patent US9149476B2, “Thiochromene derivatives as HIF hydroxylase inhibitors” (FibroGen, Inc., priority 2008, dated 2015)
